ChEMBL document CHEMBL4765487, “From a Designer Drug to the Discovery of Selective Cannabinoid Type 2 Receptor Agonists with Favorable Pharmacokinetic Profiles for the Treatment of Systemic Sclerosis” (J Med Chem, 2021)
The source made the active and inactive calls. The calls are words filed in the database; no cut-off is given here.

Experiments:
[1] = Clearance in BALB/c mouse at 5 mg/kg, po measured during 0.083 to 24 hrs post dose by LC-MS/MS analysis; assay type: ADME, organism-based; settings: in vivo, time 0.083-24 hrs
[2] = test system: CHO; assay: Effect on ERK1/2 Thr202/Tyr204 phosphorylation in CHO cells at 0.1 to 10 uM incubated for 15 mins by Western blot analysis; assay type: functional, cell-based; settings: Cricetulus griseus, dose 0.1-10 µM
[3] = biological target: T1, Cannabinoid receptor 2 (Homo sapiens, UniProt P34972); assay: Agonist activity at human CB2 receptor expressed in HEK293 cells after 24 hrs by luciferase reporter gene assay based Tango beta-arrestin recruitment method; assay type: cell-based
[4] = biological target: T2, Cannabinoid receptor 1 (Homo sapiens, UniProt P21554); assay: Induction of receptor desensitization at human CB1 receptor expressing CHO cells co-expressing Galpha16 at 10 uM followed by washing with HBSS buffer upon incubation for 10 mins and restimulated with CP55940 by calcium mobilization assay; assay type: functional, cell-based; settings: filed as agonist
[5] = test system: Mus musculus; assay: Antifibrotic activity in BALB/c mouse model of BLM-induced systemic sclerosis assessed as reduction in Col1alpha mRNA expression at 1 to 5 mg/kg, sc dosed once daily for 4 weeks by quantitative real-time PCR analysis; assay type: functional, organism-based; settings: dose 1-5 mg/kg
[6] = biological target: T1, Cannabinoid receptor 2; assay: Agonist activity at human CB2 receptor expressed in CHO cells assessed as increase in ERK1/2 Thr202/Tyr204 phosphorylation at 0.1 to 10 uM incubated for 15 mins by Western blot analysis; assay type: cell-based; settings: filed as agonist, dose 0.1-10 µM
[7] = test system: Mus musculus; assay: Antifibrotic activity in BALB/c mouse model of BLM-induced systemic sclerosis assessed as reduction in TNF-alpha mRNA expression at 1 to 5 mg/kg, sc dosed once daily for 4 weeks by quantitative real-time PCR analysis; assay type: functional, organism-based; settings: dose 1-5 mg/kg
[8] = biological target: T2, Cannabinoid receptor 1; assay: Agonist activity at human CB1 receptor expressed in HEK293 cells after 24 hrs by luciferase reporter gene assay based Tango beta-arrestin recruitment method; assay type: cell-based
[9] = organism: Homo sapiens; assay: Selectivity index, ratio of EC50 for agonist activity at human CB1 receptor expressing CHO cells co-expressing Galpha16 by calcium mobilization assay to EC50 for agonist activity at human CB2 receptor expressing CHO cells co-expressing Galpha16 by calcium mobilization assay
[10] = Clearance in BALB/c mouse at 1 mg/kg, iv measured during 0.083 to 24 hrs post dose by LC-MS/MS analysis; assay type: ADME, organism-based; settings: in vivo, time 0.083-24 hrs
[11] = biological target: Prostaglandin E2 receptor EP4 subtype (Homo sapiens) (UniProt P35408); assay: Antagonist activity at EP2 (unknown origin) at 10 uM
[12] = biological target: T3, Glucose-dependent insulinotropic receptor (Homo sapiens) (UniProt Q8TDV5); assay: Antagonist activity at GPR119 (unknown origin) at 10 uM
T3 sequence (whole entry): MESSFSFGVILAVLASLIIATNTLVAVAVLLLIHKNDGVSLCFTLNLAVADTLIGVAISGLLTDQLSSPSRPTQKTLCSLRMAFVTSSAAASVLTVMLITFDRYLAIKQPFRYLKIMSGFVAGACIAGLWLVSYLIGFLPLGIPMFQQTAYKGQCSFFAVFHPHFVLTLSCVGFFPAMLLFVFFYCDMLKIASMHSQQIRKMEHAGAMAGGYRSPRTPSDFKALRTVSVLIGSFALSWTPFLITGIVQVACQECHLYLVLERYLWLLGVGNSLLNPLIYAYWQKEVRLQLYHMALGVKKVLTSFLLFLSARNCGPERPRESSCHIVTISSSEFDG

[13] = biological target: T2, Cannabinoid receptor 1; assay: Agonist activity at human CB1 receptor expressing CHO cells co-expressing Galpha16 by calcium mobilization assay relative to CP55940; assay type: functional, cell-based
[14] = biological target: Prostaglandin E2 receptor EP4 subtype (Homo sapiens) (UniProt P35408); assay: Agonist activity at EP2 (unknown origin) at 10 uM
[15] = test system: Mus musculus; assay: Antifibrotic activity in BALB/c mouse model of BLM-induced systemic sclerosis assessed as reduction in dermal pathological symptoms at 1 to 5 mg/kg, sc dosed once daily for 4 weeks by H and E staining based analysis; assay type: functional, organism-based; settings: dose 1-5 mg/kg
[16] = biological target: T4, Probable G-protein coupled receptor 132 (Homo sapiens) (UniProt Q9UNW8); assay: Agonist activity at GPR132 (unknown origin) at 10 uM
T4 sequence (whole entry): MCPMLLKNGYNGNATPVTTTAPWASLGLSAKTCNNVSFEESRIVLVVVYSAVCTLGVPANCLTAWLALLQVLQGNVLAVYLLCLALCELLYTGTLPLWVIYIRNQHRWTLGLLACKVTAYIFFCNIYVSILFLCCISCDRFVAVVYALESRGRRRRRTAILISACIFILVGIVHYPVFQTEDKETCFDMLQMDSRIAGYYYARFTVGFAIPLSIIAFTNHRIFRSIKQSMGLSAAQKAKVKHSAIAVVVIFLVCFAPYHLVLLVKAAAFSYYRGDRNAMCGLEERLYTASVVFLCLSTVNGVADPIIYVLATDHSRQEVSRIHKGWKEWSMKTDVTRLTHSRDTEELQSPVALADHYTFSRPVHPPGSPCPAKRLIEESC

[17] = Half life in BALB/c mouse at 5 mg/kg, po measured during 0.083 to 24 hrs post dose by LC-MS/MS analysis; assay type: ADME, organism-based; settings: in vivo, time 0.083-24 hrs
[18] = AUC (0 to infinity) in BALB/c mouse at 5 mg/kg, po measured during 0.083 to 24 hrs post dose by LC-MS/MS analysis; assay type: ADME, organism-based; parameters: route oral, dose 5 mg/kg, time 0.083-24 hrs; settings: in vivo
[19] = Cmax in BALB/c mouse at 5 mg/kg, po measured during 0.083 to 24 hrs post dose by LC-MS/MS analysis; assay type: ADME, organism-based; parameters: route oral, time 0.083-24 hrs, dose 5 mg/kg; settings: in vivo
[20] = biological target: T4, Probable G-protein coupled receptor 132 (Homo sapiens); assay: Antagonist activity at GPR132 (unknown origin) at 10 uM
[21] = in vitro; settings: human, liver microsomes
Description: Half life in human liver microsomes at 1 uM in presence of NADPH by LC-MS/MS analysis

[22] = Volume of distribution in BALB/c mouse at 1 mg/kg, iv measured during 0.083 to 24 hrs post dose by LC-MS/MS analysis; assay type: ADME, organism-based; settings: in vivo, time 0.083-24 hrs
[23] = biological target: Prostaglandin E2 receptor EP4 subtype (Homo sapiens) (UniProt P35408); assay: Antagonist activity at EP4 (unknown origin) at 10 uM
[24] = AUC (0 to infinity) in BALB/c mouse at 1 mg/kg, iv measured during 0.083 to 24 hrs post dose by LC-MS/MS analysis; assay type: ADME, organism-based; parameters: route intravenous, time lower 0.083 hrs, dose 1 mg/kg, time upper 24 hrs; settings: in vivo
[25] = biological target: T1, Cannabinoid receptor 2; assay: Agonist activity at human CB2 receptor expressing CHO cells co-expressing Galpha16 in presence of CB2 antagonist AM630 by calcium mobilization assay; assay type: functional, cell-based
[26] = Cmax in BALB/c mouse at 1 mg/kg, iv measured during 0.083 to 24 hrs post dose by LC-MS/MS analysis; assay type: ADME, organism-based; parameters: route intravenous, time upper 24 hrs, dose 1 mg/kg, time lower 0.083 hrs; settings: in vivo
[27] = biological target: T1, Cannabinoid receptor 2; assay: Agonist activity at human CB2 receptor expressed in CHO cells assessed as increase in ERK1/2 Thr202/Tyr204 phosphorylation at 10 uM incubated for 15 mins in presence of CB2 antagonist AM630 by Western blot analysis; assay type: cell-based
[28] = biological target: T2, Cannabinoid receptor 1; assay: Agonist activity at human CB1 receptor expressing CHO cells co-expressing Galpha16 at 10 uM by calcium mobilization assay; assay type: functional, cell-based; settings: filed as agonist
[29] = test system: Mus musculus; assay: Antifibrotic activity in BALB/c mouse model of BLM-induced systemic sclerosis assessed as reduction in skin thickness at 5 mg/kg, sc dosed once daily for 4 weeks by H and E staining based analysis; assay type: functional, organism-based

T2 sequence (P21554 whole entry): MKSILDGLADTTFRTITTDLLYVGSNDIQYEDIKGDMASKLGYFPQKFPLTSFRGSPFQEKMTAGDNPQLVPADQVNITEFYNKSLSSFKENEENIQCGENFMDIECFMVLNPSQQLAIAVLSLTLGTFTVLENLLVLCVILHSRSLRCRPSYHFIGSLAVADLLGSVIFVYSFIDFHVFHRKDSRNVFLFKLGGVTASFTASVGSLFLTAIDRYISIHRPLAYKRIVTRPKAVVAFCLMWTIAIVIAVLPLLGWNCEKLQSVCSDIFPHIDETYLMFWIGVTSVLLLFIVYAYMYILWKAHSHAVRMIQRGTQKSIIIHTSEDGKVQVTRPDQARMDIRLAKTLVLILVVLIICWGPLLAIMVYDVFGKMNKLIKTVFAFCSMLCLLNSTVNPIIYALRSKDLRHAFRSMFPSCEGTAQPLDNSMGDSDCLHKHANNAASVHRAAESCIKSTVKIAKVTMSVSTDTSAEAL
T1 sequence (P34972 whole entry): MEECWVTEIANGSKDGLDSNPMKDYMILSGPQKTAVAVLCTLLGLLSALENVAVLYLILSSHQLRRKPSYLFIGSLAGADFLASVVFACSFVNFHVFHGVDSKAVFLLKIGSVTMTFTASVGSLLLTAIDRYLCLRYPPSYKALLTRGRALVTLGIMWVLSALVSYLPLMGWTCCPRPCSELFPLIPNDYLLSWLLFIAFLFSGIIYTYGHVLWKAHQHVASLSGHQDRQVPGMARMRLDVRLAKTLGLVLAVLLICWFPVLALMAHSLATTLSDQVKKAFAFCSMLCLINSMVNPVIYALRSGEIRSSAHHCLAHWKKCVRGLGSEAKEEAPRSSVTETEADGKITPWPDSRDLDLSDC
Prostaglandin E2 receptor EP4 subtype (Homo sapiens), sequence (P35408 whole entry): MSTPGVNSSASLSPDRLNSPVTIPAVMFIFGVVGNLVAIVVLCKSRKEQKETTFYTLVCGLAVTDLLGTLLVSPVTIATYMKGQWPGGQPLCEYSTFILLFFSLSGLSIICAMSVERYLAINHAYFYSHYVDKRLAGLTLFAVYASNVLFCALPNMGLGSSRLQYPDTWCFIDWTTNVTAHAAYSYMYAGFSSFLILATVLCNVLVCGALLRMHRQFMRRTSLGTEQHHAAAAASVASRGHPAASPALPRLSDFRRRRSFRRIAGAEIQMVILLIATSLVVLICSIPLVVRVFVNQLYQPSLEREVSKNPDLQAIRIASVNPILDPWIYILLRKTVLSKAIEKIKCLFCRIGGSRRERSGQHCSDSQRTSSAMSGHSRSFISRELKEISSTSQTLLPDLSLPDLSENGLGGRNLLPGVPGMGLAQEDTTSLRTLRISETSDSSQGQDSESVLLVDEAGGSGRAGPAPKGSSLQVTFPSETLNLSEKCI

CC(C)(CO)NC(=O)c1cc(C(C)(C)C)n(-c2ccc(C(F)(F)F)cn2)n1
CL/F [1]: 51.7 mL/min/kg
Activity [2]: inactive
EC50 [3]: 562 nM
Activity [4]: Active
Activity [5]: Active
Activity [6]: Active
Activity [7]: Active
EC50 [8]: > 10000 nM
Ratio EC50 [9]: > 100
clearance [10]: 40 mL/min/kg
Activity [11]: inactive
Activity [12]: inactive
Emax [13]: 30%
Activity [14]: inactive
Activity [15]: Active
Activity [16]: inactive
half-life [17]: 2.18 h
AUC(0-inf) [18]: 1670 ng·h/mL
Cmax [19]: 603 ng/mL
Activity [20]: inactive
half-life at 1 µM [21]: 1.88 h
Vd [22]: 4.5 L/kg
Activity [23]: inactive
AUC(0-inf) [24]: 422 ng·h/mL
Activity [25]: inactive
Cmax [26]: 959 ng/mL
Activity [27]: inactive
Activity [28]: Active
Activity [29]: Active
